In publication PMC11233000, “Characterization of BrGH3A, a bovine rumen-derived glycoside hydrolase family 3 β-glucosidase with a permuted domain arrangement” (PLOS ONE, 2024):

What was measured:
BrGH3A [1] = system: T1, BrGH3A; assay: glucose release, glucose oxidase/ABTS; format: biochemical, metagenome: bovine ruminal fluid; settings: 0.1 M sodium citrate, pH 5.0, 40°C, 5 min
T1 construct: C-FnIII-N domain order is natural
Description: glucose release, glucose oxidase/ABTS on BrGH3A

BrGH3A [2] = system: T1, BrGH3A; assay: p-nitrophenol release, absorbance […] nm; format: biochemical, metagenome: bovine ruminal fluid; settings: 0.1 M sodium citrate, pH 5.0, 40°C, 5 min
[3] = released glucose divided by two

| SMILES | Km (BrGH3A [2]) | other results |
| --- | --- | --- |
| OC[C@H]1O[C@@H](O[C@H]2[C@H](O)[C@@H](CO)OC(O)[C@@H]2O)[C@H](O)[C@@H](O)[C@@H]1O (some centres unmarked) [Laminaribiose] |  | Km (BrGH3A [1]; [3]): 14.3 ± 1.3 mM |
| O=[N+]([O-])c1ccc(O[C@@H]2O[C@H](CO)[C@@H](O)[C@H](O)[C@H]2O)cc1 [pNP-Glc, p-nitrophenyl-β-D-glucopyranoside] | 0.6 ± 0.04 mM |  |
| C[C@H]1O[C@@H](Oc2ccc([N+](=O)[O-])cc2)[C@H](O)[C@@H](O)[C@H]1O [pNP-Fuc, p-nitrophenyl-β-D-fucopyranoside] | 7.96 ± 0.64 mM |  |
| OC[C@H]1O[C@@H](O[C@@H]2[C@@H](O)[C@H](O[C@H]3[C@H](O)[C@@H](CO)OC(O)[C@@H]3O)O[C@H](CO)[C@H]2O)[C@H](O)[C@@H](O)[C@@H]1O (some centres unmarked) [Laminaritriose] |  | Km (BrGH3A [1]; calculated as total released glucose): 5.4 ± 0.42 mM |
| O=[N+]([O-])c1ccc(O[C@@H]2OC[C@@H](O)[C@H](O)[C@H]2O)cc1 [pNP-Xyl, p-nitrophenyl-β-D-xylopyranoside] | 2.12 ± 0.1 mM |  |
| O=[N+]([O-])c1ccc(O[C@@H]2OC[C@H](O)[C@H](O)[C@H]2O)cc1 [pNP-Ara, p-nitrophenyl-α-L-arabinopyranoside] | 9.95 ± 1.16 mM |  |
| OC[C@H]1O[C@@H](O[C@H]2[C@H](O)[C@@H](O)C(O)O[C@@H]2CO)[C@H](O)[C@@H](O)[C@@H]1O (some centres unmarked) [Cellobiose] |  | Km (BrGH3A [1]; [3]): 30 ± 3.9 mM |
| O=[N+]([O-])c1ccc(O[C@@H]2O[C@H](CO)[C@H](O)[C@H](O)[C@H]2O)cc1 [pNP-Gal, p-nitrophenyl-β-D-galactopyranoside] | 7.55 ± 0.9 mM |  |
